Results published in paper PMC3073382 (Journal of medicinal chemistry, 2010).

Target: PKA (catalytic subunit) (Bos taurus, UniProt P00517)
Assay: biochemical

IC50: 110 nM
SMILES: O=C(N[C@@H]1CNCCC[C@H]1OC(=O)c1cc(O)c(C(=O)c2c(O)cccc2C(=O)O)c(O)c1)c1ccc(O)cc1 [balanol]
